Measured values: ChEMBL document CHEMBL3045860, “The effect of sodium bicarbonate alone or in combination with a reduced dose of tebuconazole on the control of apple scab” (Crop Prot, 2006)

Assays:
Assay type in all cases: organism-based
Details in all cases: in vivo
Malus domestica [1] = assay: Phytotoxicity in Malus x domestica (apple) assessed as width of harvested fruit at 0.025% […] (reference value: 76 mm)
Malus domestica [2] = assay: Phytotoxicity in Malus x domestica (apple) assessed as total soluble solid of harvested fruit at 0.025% by refractometric analysis (reference value: 14%)
Malus domestica [3] = assay: Phytotoxicity in Malus x domestica (apple) assessed as mass of harvested fruit at 0.025% […] (reference value: 181 g)
Malus domestica [4] = assay: Phytotoxicity in Malus x domestica (apple) assessed as length of harvested fruit at 0.025% […] (reference value: 63.3 mm)

CC(C)(C)C(O)(CCc1ccc(Cl)cc1)Cn1cncn1 (centres undefined) [TEBUCONAZOLE]
Activity (Malus domestica [1]): 80.3 mm | Activity (Malus domestica [2]): 14.1% | Activity (Malus domestica [3]): 229 g | Activity (Malus domestica [4]): 68 mm
